Results published in patent publication US10988444B2, “Antimicrobial compounds” (NEWSOUTH INNOVATIONS PTY LIMITED, priority 2016, dated 2021).
Where two headings read alike, the source gives them in different places.

Experiments:
E. coli [1] = assay: Minimal inhibitory concentration (MIC) determination, Example 1; assay type: cell-based; settings: Escherichia coli, 24 h, MHB, 37° C., read-out: Minimum inhibitory concentration (MIC) E. coli
Protocol: (§1) The antibacterial activity of the compounds was determined by the determination of minimal inhibitory concentration (MIC) by following the previously published protocol (see Nizalapur, S.; Ho, K. K.; Kimyon, Ö.; Yee, E.; Berry, T.; Manefield, M.; Cranfield, C. G.; Willcox, M.; Black, D. S.; Kumar, N. Org. Biomol. Chem. 2016, 14, 3623). The compounds to be tested were dissolved and diluted in autoclaved Millipore water. A single colony of bacteria was cultured overnight in TSB at 37° C. The resulting bacteria were collected by centrifugation and re-suspended in the same volume of MHB twice. Optical density (OD) of the resulting culture was adjusted to 0.1 at 600 nm (10^8 CFU/mL) in MHB, and the adjusted culture was further diluted to […] in MHB. Then, 100 μL of the bacterial solution was added to wells of a 96-well plate containing 100 μL of serially diluted compound. Two controls were also prepared: one containing 100 μL of MHB media and 100 μL sterile water, and the other containing 100 μL of bacterial solution and 100 μL sterile water. […] The MIC value was determined as the lowest concentration of compound that inhibited the complete growth of the bacteria (i.e. OD similar to that of the control having no bacteria). Each experiment was performed in triplicate and was repeated in three independent experiments.
(§2) The results of the MIC assay are given below in Table 1.

S. aureus [2] = assay: as above; assay type: cell-based; settings: Staphylococcus aureus
Protocol: as §1, §2

S. marcescens = assay: Biofilm disruption assay, established biofilms, crystal violet staining; assay type: cell-based, Serratia marcescens; settings: 250 μM, 24 h treatment
Protocol: (§3) Bacterial cultures were grown in TSB media for overnight at 37° C. with shaking at 150 r.p.m. Cultures were diluted (1:20) in YPD medium and 200 μl aliquots were dispensed to flat bottom 96-well plate wells (Sarstedt Australia). Cultures were supplemented with varying concentrations of synthetic compounds dissolved in water. For pre-established biofilm assay, cultures were grown in 96-well plate wells overnight prior to supplementation with synthetic compounds. Control cultures were supplemented with an equal amount of DMSO. Plates were sealed with self-adhesive microplate sealers (TopSeal-A, PerkinElmer) to allow air diffusion and to prevent condensation. Cultures were incubated overnight at 37° C. with shaking at 150 r.p.m. Biofilms adhered on polystyrene substratum were quantified by crystal violet staining as described previously (see Wiegand, I.; Hilpert, K.; Hancock, R. E. W. Nat. Protocols 2008, 3 (2), 163-175). All cultures were prepared in triplicates. Error bars represent the standard error of three independent experiments (n=3).
(§4) The biofilm disruption activities of the compounds were investigated using crystal violet staining according to a previously published protocol (G. A. O'Toole, J Vis Exp, 2011, (47), pii: 2437, DOI: 10.3791/2437, 2437). The ability of compounds (34-38, 51-56, 61, 62, 65 and 66) to disrupt the established biofilms of the Gram-positive bacteria S. aureus and the Gram-negative bacteria Pseudomonas aeruginosa, Serratia marcescens and E. coli, was determined at a concentration of 250 μM. In this assay, bacterial cultures were grown on a polystyrene substratum overnight prior to treatment with the compounds. In addition, the ability of these compounds to inhibit the formation of biofilms of P. aeruginosa and S. marcescens was also investigated at 250 μM, whereby the bacterial cultures were grown in the presence of test compounds.

E. coli [3] = assay: as above; assay type: cell-based; settings: 250 μM, 24 h treatment
Protocol: as §3, §4

[4] = test system: Pseudomonas aeruginosa (PAO1); assay: as above; assay type: cell-based; settings: 250 μM, 24 h treatment
Protocol: as §3, §4

S. aureus [5] = assay: as above; assay type: cell-based; settings: 250 μM, 24 h treatment
Protocol: as §3, §4

S. aureus biofilms = assay: Confocal microscopy of established biofilms, Live/dead stain; assay type: cell-based; settings: 250 μM
[6] = test system: Pseudomonas aeruginosa (PAO1); assay: Biofilm inhibition assay (inhibition of biofilm formation), crystal violet staining; assay type: cell-based; settings: 24 h, read-out: inhibition of biofilm formation by P. aeruginosa
Protocol: as §3, with “no-established” for “pre-established”, “along” for “prior to supplementation”, “water.” for “DMSO.”
as §4

[7] = test system: MRC-5 normal human lung fibroblasts; assay: Toxicity assay, Alamar blue, Example 1; assay type: cell-based; settings: 72 h incubation
Protocol: The normal human lung fibroblasts MRC-5 were cultured in minimal essential medium (MEM, Invitrogen) supplemented with 10% foetal calf serum (FCS), 1% L-glutamine-penicillin-streptomycin, 2% sodium bicarbonate, 1% non-essential amino acids (NEAA) and 1% sodium pyruvate. The cell line was maintained at 37° C. in 5% CO2 as an adherent monolayer and was passaged upon reaching confluence by standard cell culture techniques. MRC-5 cells were seeded at 2×10^4 cells per well in 96-well plates to ensure full confluence (quiescence). Cells were treated 24 h after seeding with 0.1 to 1000 μM of compounds. After 72 h drug incubation, the treated media was replaced with fresh media containing 10% Alamar blue and the cells were incubated for another 6 h. The metabolic activity was detected by spectrophotometric analysis by assessing the absorbance of Alamar blue as previously described by Pasquier et. al (see Pasquier, E.; Ciccolini, J.; Carre, M.; Giacometti, S.; Fanciullino, R.; Pouchy, C.; Montero, M.-P.; Serdjebi, C.; Kavallaris, M.; André, N. Oncotarget 2011, 2, 797).
Cell proliferation was determined and expressed as a percentage of untreated control cells. The determination of IC50 values was performed using GraphPad Prism 6 (San Diego, Calif., USA).
To further evaluate the utility of these novel guanylated peptidomimetics for medical applications, it was essential to determine their specificity towards bacterial cells over mammalian cells.

S. marcescens biofilms = assay: Confocal microscopy of non-established biofilms, Live/dead stain; assay type: cell-based, Serratia marcescens; settings: 250 μM
Protocol: S. aureus and Serratia marcescens biofilms were grown by adding 1.5 ml of bacterial cells (OD600 nm˜0.600) suspended in fresh TSB medium into 35×10 mm polystyrene petri dishes and incubated over 24 h at 37° C. in a shaking incubator at 120 r.p.m. Cultures were supplemented with varying concentrations of synthetic compounds dissolved in water. Control cultures were supplemented with an equal amount of water. After 24 h, the biofilm growth medium was discarded and the biofilms were gently rinsed 3 times with PBS (pH: 7.0) in order to remove any planktonic bacterial cells. The remaining substratum adhered biofilms were then stained with Live/dead stain (Invitrogen, Oregon, USA) for 20 mins in the dark and then subjected to confocal microscopy. Stained biofilms were visualized with FV 1200 Confocal microscope.

S. aureus (SA38) = settings: Literature value; cited from earlier work
[8] = MHB, 37° C., 24 h, read-out: Minimum inhibitory concentration (MIC) S. aureus

Molecule	MIC (E. coli [1]) [µg/mL]	MIC (S. aureus [2]; [8]) [µg/mL]	disruption of established biofilms of S. marcescens (S. marcescens) [%]	disruption of established biofilms of E. coli (E. coli [3]) [%]	disruption of established biofilms of P. aeruginosa [4] [%]	disruption of established biofilms of S. aureus (S. aureus [5]) [%]	confocal microscopy, effect on pre-established S. aureus biofilm (S. aureus biofilms)	MIC (S. aureus [2]; MIC in μM as compared with MRC-5 IC50, read-out: equivalent MIC values) [µM]	inhibition at 250 µM [6] [%]	toxicity (IC50) against MRC-5 human fibroblast cells [7]	confocal microscopy, effect on S. marcescens biofilm formation (S. marcescens biofilms)	MIC (S. aureus (SA38)) [µM]
COC(=O)C(CCCN)NC(=O)C(CCCCN)NC(=O)C(=O)c1cc(Br)ccc1NC(=O)c1ccc2ccccc2c1.Cl.Cl (stereo not drawn) [Compound 62, Methyl 2-(2-(2-(2-(2-naphthamido)-5-bromophenyl)-2-oxoacetamido)-6-aminohexanamido)-5-aminopentanoate dihydrochloride]	21	23	49	42	46	61	disrupted the pre-established biofilm significantly	–	–	–	–	–
COC(=O)[C@H](CCCNC(=N)N)NC(=O)[C@H](CCCNC(=N)N)NC(=O)C(=O)c1ccccc1NC(=O)c1ccc2ccccc2c1.Cl.Cl [Compound 65, Methyl (2-(2-(2-naphthamido)phenyl)-2-oxoacetyl)arginylargininate dihydrochloride]	90	18	60	–	–	–	–	31	65	not reaching a 50% reduction of cell viability at the highest tested dose	inhibited biofilm formation	–
MSI-78	–	–	–	–	–	–	–	–	–	–	–	13
